# According to US20100267561A1, “HERBICIDAL PYRIDAZINONE DERIVATIVES” (priority 2007, published 2010):
# Like-named read-outs stand apart in the source and are kept apart here.
# Key:
# Assay in all cases: Test B pre-/postemergence plant response
# Type in all cases: in vivo
# [1] = test system: lambsquarters (Chenopodium album); details: for pest or weed control at 31 g/ha / pest or weed control at 62 g/ha: Chenopodium album, read-out: Plant response rating, Lambsquarters; for pest or weed control at 31 g/ha: 31 g ai/ha; for pest or weed control at 62 g/ha: 62 g ai/ha, 100 complete control
# Summary of the method: (§1)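 Visual scoring from 0 (no effect) to 100 (complete control) against untreated controls was done 13 to 15 days after greenhouse treatment. Chemicals were formulated in a surfactant-containing non-phytotoxic solvent and applied to soil preemergence or to 1- to 4-leaf (2-18 cm) plants postemergence.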
# [2] = test system: johnsongrass (Sorghum halepense); details: for pest or weed control at 31 g/ha / pest or weed control at 62 g/ha: Sorghum halepense, read-out: Plant response rating, Johnsongrass; for pest or weed control at 31 g/ha: 31 g ai/ha; for pest or weed control at 62 g/ha: 62 g ai/ha, 100 complete control
# Summary of the method: as §1
# [3] = test system: pigweed (Amaranthus retroflexus); details: for pest or weed control at 31 g/ha / pest or weed control at 62 g/ha: Amaranthus retroflexus, read-out: Plant response rating, Pigweed; for pest or weed control at 31 g/ha: 31 g ai/ha; for pest or weed control at 62 g/ha: 62 g ai/ha, 100 complete control
# Summary of the method: as §1
# [4] = test system: giant foxtail (Setaria faberii); details: for pest or weed control at 31 g/ha: 31 g ai/ha; for pest or weed control at 62 g/ha: 62 g ai/ha, 100 complete control
# Summary of the method: as §1
# [5] = test system: woolly cupgrass (Eriochloa villosa); details: for pest or weed control at 31 g/ha: 31 g ai/ha; for pest or weed control at 62 g/ha: 62 g ai/ha, 100 complete control
# Summary of the method: as §1
# [6] = test system: goosegrass (Eleusine indica); details: for pest or weed control at 31 g/ha / pest or weed control at 62 g/ha: Eleusine indica, read-out: Plant response rating, Goosegrass; for pest or weed control at 31 g/ha: 31 g ai/ha; for pest or weed control at 62 g/ha: 62 g ai/ha, 100 complete control
# Summary of the method: as §1
# [7] = test system: blackgrass (Alopecurus myosuroides); details: for pest or weed control at 31 g/ha: 31 g ai/ha; for pest or weed control at 62 g/ha: 62 g ai/ha, 100 complete control
# Summary of the method: as §1
# [8] = test system: Russian thistle (Salsola iberica); details: Preemergence
# Summary of the method: as §1
# [9] = test system: catchweed bedstraw (Galium aparine); details: Preemergence
# Summary of the method: as §1
# [10] = test system: eastern black (E.B.) nightshade (Solanum ptycanthum); details: Preemergence
# Summary of the method: as §1
# soybean (Glycine max) = details: for plant injury at 31 g/ha / plant injury at 62 g/ha: Glycine max, read-out: Plant response rating, Soybean; for plant injury at 31 g/ha: 31 g ai/ha; for plant injury at 62 g/ha: 62 g ai/ha, 100 complete control
# Summary of the method: as §1
# [11] = test system: Italian ryegrass (Lolium multiflorum); details: for pest or weed control at 31 g/ha / pest or weed control at 62 g/ha: Lolium multiflorum, read-out: Plant response rating, Ryegrass, Italian; for pest or weed control at 31 g/ha: 31 g ai/ha; for pest or weed control at 62 g/ha: 62 g ai/ha, 100 complete control
# Summary of the method: as §1
# [12] = test system: common ragweed (Ambrosia elation); details: for pest or weed control at 31 g/ha / pest or weed control at 62 g/ha: Ambrosia, read-out: Plant response rating, Ragweed; for pest or weed control at 31 g/ha: 31 g ai/ha; for pest or weed control at 62 g/ha: 62 g ai/ha, 100 complete control
# Summary of the method: as §1
# [13] = 8 g ai/ha, postemergence, 0-100 scale
# [14] = 16 g ai/ha, postemergence, 0-100 scale
# [15] = post-emergence, Postemergence, scale 0 to 100
# [16] = post-emergence, Postemergence, scale 0 to 100, 0 no effect
# [17] = pre-emergence, Preemergence, scale 0 to 100 (0 no effect, 100 complete control)
# [18] = pre-emergence, Preemergence, 0 to 100 scale, 0 no effect
# [19] = Preemergence, 8 g ai/ha, scale 0 to 100 (0 no effect, 100 complete control)
# [20] = Preemergence, 16 g ai/ha, scale 0 to 100
# [21] = 8 g ai/ha, scale 0 to 100 (0 no effect, 100 complete control)
structure (smiles),measurement,setting,value
"Cc1cc(-c2ccc(Br)cc2)nn1-c1c(O)cn[nH]c1=O [Compound 78, 4-[3-(4-bromophenyl)-5-methyl-1H-pyrazol-1-yl]-5-hydroxy-3(2H)-pyridazinone]",Lambsquarters plant response rating,[1]; [13],0
same,Lambsquarters plant response rating,[1]; [14],0
same,pest or weed control at 31 g/ha,[1]; [15],0%
same,pest or weed control at 62 g/ha,[1]; [16],0%
same,pest or weed control at 31 g/ha,[1]; [17],0%
same,pest or weed control at 62 g/ha,[1]; [18],0%
same,Lambsquarters plant response rating,[1]; [19],0
same,Lambsquarters plant response rating,[1]; [20],0
same,Johnsongrass plant response rating,[2]; [13],75
same,Johnsongrass plant response rating,[2]; [14],100
same,Johnsongrass plant response rating,[2]; [19],60
same,Johnsongrass plant response rating,[2]; [20],80
same,pest or weed control at 31 g/ha,[2]; [15],100%
same,pest or weed control at 62 g/ha,[2]; [16],100%
same,pest or weed control at 31 g/ha,[2]; [17],95%
same,pest or weed control at 62 g/ha,[2]; [18],100%
same,Pigweed plant response rating,[3]; [13],0
same,Pigweed plant response rating,[3]; [14],0
same,pest or weed control at 31 g/ha,[3]; [15],0%
same,pest or weed control at 62 g/ha,[3]; [16],0%
same,pest or weed control at 31 g/ha,[3]; [17],0%
same,pest or weed control at 62 g/ha,[3]; [18],0%
same,Pigweed plant response rating,[3]; [19],0
same,Pigweed plant response rating,[3]; [20],0
same,"Foxtail, Giant plant response rating",[4]; [13],98
same,"Foxtail, Giant plant response rating",[4]; [19],98
same,"Foxtail, Giant plant response rating",[4]; [20],100
same,pest or weed control at 16 g/ha,"[4]; Setaria faberi, post-emergence, Postemergence, 16 g ai/ha, scale 0 to 100, read-out: Plant response rating, Foxtail, Giant",100%
same,pest or weed control at 31 g/ha,"[4]; Setaria faberi, post-emergence, Postemergence, scale 0 to 100, read-out: Plant response rating, Foxtail, Giant",100%
same,pest or weed control at 62 g/ha,"[4]; Setaria faberi, post-emergence, Postemergence, scale 0 to 100, 0 no effect, read-out: Plant response rating, Foxtail, Giant",100%
same,pest or weed control at 31 g/ha,"[4]; Setaria faberi, pre-emergence, Preemergence, scale 0 to 100 (0 no effect, 100 complete control), read-out: Plant response rating, Foxtail, Giant",100%
same,pest or weed control at 62 g/ha,"[4]; Setaria faberi, pre-emergence, Preemergence, 0 to 100 scale, 0 no effect, read-out: Plant response rating, Foxtail, Giant",100%
same,"Cupgrass, Woolly plant response rating",[5]; [13],98
same,pest or weed control at 16 g/ha,"[5]; Eriochloa villosa, post-emergence, Postemergence, 16 g ai/ha, scale 0 to 100, read-out: Plant response rating, Cupgrass, Woolly",100%
same,pest or weed control at 31 g/ha,"[5]; Eriochloa villosa, post-emergence, Postemergence, scale 0 to 100, read-out: Plant response rating, Cupgrass, Woolly",100%
same,pest or weed control at 62 g/ha,"[5]; Eriochloa villosa, post-emergence, Postemergence, scale 0 to 100, 0 no effect, read-out: Plant response rating, Cupgrass, Woolly",100%
same,pest or weed control at 31 g/ha,"[5]; Eriochloa villosa, pre-emergence, Preemergence, scale 0 to 100 (0 no effect, 100 complete control), read-out: Plant response rating, Cupgrass, Woolly",100%
same,pest or weed control at 62 g/ha,"[5]; Eriochloa villosa, pre-emergence, Preemergence, 0 to 100 scale, 0 no effect, read-out: Plant response rating, Cupgrass, Woolly",100%
same,"Cupgrass, Woolly plant response rating",[5]; [19],65
same,"Cupgrass, Woolly plant response rating",[5]; [20],98
same,Goosegrass plant response rating,[6]; [13],70
same,Goosegrass plant response rating,[6]; [14],85
same,pest or weed control at 31 g/ha,[6]; [15],90%
same,pest or weed control at 62 g/ha,[6]; [16],100%
same,pest or weed control at 31 g/ha,[6]; [17],100%
same,pest or weed control at 62 g/ha,[6]; [18],100%
same,Goosegrass plant response rating,[6]; [19],85
same,Goosegrass plant response rating,[6]; [20],100
same,Blackgrass plant response rating,[7]; [13],70
same,pest or weed control at 16 g/ha,"[7]; Alopecurus myosuroides, post-emergence, Postemergence, 16 g ai/ha, scale 0 to 100, read-out: Plant response rating, Blackgrass",95%
same,pest or weed control at 31 g/ha,"[7]; Alopecurus myosuroides, post-emergence, Postemergence, scale 0 to 100, read-out: Plant response rating, Blackgrass",100%
same,pest or weed control at 62 g/ha,"[7]; Alopecurus myosuroides, post-emergence, Postemergence, scale 0 to 100, 0 no effect, read-out: Plant response rating, Blackgrass",100%
same,pest or weed control at 31 g/ha,"[7]; Alopecurus myosuroides, pre-emergence, Preemergence, scale 0 to 100 (0 no effect, 100 complete control), read-out: Plant response rating, Blackgrass",100%
same,pest or weed control at 62 g/ha,"[7]; Alopecurus myosuroides, pre-emergence, Preemergence, 0 to 100 scale, 0 no effect, read-out: Plant response rating, Blackgrass",100%
same,Blackgrass plant response rating,[7]; [19],70
same,Blackgrass plant response rating,[7]; [20],90
same,Russian Thistle plant response rating,[8]; [21],0
same,"Plant response rating, Russian Thistle","[8]; 31 g ai/ha, scale 0 to 100 (0 no effect, 100 complete control)",0
same,"Plant response rating, Russian Thistle","[8]; 62 g ai/ha, 0 to 100 scale, 0 no effect, 100 complete control",0
same,Russian Thistle plant response rating,"[8]; 16 g ai/ha, scale 0 to 100",0
same,pest or weed control at 31 g/ha,"[9]; Galium aparine, pre-emergence, 31 g ai/ha, scale 0 to 100 (0 no effect, 100 complete control), read-out: Plant response rating, Galium",0%
same,pest or weed control at 62 g/ha,"[9]; Galium aparine, pre-emergence, 62 g ai/ha, 0 to 100 scale, 0 no effect, 100 complete control, read-out: Plant response rating, Galium",0%
same,Galium plant response rating,[9]; [21],0
same,Galium plant response rating,"[9]; 16 g ai/ha, scale 0 to 100",0
same,"Nightshade, E. B. plant response rating",[10]; [21],0
same,"Nightshade, E. B. plant response rating","[10]; 16 g ai/ha, scale 0 to 100",0
same,pest or weed control at 31 g/ha,"[10]; Solanum, pre-emergence, 31 g ai/ha, scale 0 to 100 (0 no effect, 100 complete control), read-out: Plant response rating, Nightshade, E. B.",0%
same,pest or weed control at 62 g/ha,"[10]; Solanum, pre-emergence, 62 g ai/ha, 0 to 100 scale, 0 no effect, 100 complete control, read-out: Plant response rating, Nightshade, E. B.",55%
same,Soybean plant response rating,soybean (Glycine max); [13],0
same,Soybean plant response rating,soybean (Glycine max); [14],15
same,plant injury at 31 g/ha,soybean (Glycine max); [15],20%
same,plant injury at 62 g/ha,soybean (Glycine max); [16],25%
same,plant injury at 31 g/ha,soybean (Glycine max); [17],0%
same,plant injury at 62 g/ha,soybean (Glycine max); [18],0%
same,Soybean plant response rating,soybean (Glycine max); [19],0
same,Soybean plant response rating,soybean (Glycine max); [20],0
same,"Ryegrass, Italian plant response rating",[11]; [13],90
same,"Ryegrass, Italian plant response rating",[11]; [14],98
same,pest or weed control at 31 g/ha,[11]; [15],100%
same,pest or weed control at 62 g/ha,[11]; [16],100%
same,pest or weed control at 31 g/ha,[11]; [17],100%
same,pest or weed control at 62 g/ha,[11]; [18],100%
same,"Ryegrass, Italian plant response rating",[11]; [19],98
same,"Ryegrass, Italian plant response rating",[11]; [20],98
same,Ragweed plant response rating,[12]; [13],0
same,Ragweed plant response rating,[12]; [14],0
same,pest or weed control at 31 g/ha,[12]; [15],0%
same,pest or weed control at 62 g/ha,[12]; [16],60%
same,pest or weed control at 31 g/ha,[12]; [17],0%
same,pest or weed control at 62 g/ha,[12]; [18],0%
same,Ragweed plant response rating,[12]; [19],0
same,Ragweed plant response rating,[12]; [20],0
